Measurements as given in patent publication US20070208005A1, “TETRAHYDROBENZAZEPINES AS ANTAGONISTS AND/OR REVERSE AGONISTS OF THE HISTAMINE H3 RECEPTOR” (priority 2004, published 2007).

These compounds were tested against T1, histamine H3 receptor (Homo sapiens, UniProt Q9Y5N1) (assay: Histamine H3 functional antagonist assay ([35S]-GTPγS SPA on membranes of H3 cells)). Conditions: membrane prepared from cultured H3 cells (CHO K1, human H3); histamine at EC80; averages of a number of experiments; read-out: functional pKi (fpKi), H3 functional antagonist assay (converted).
T1 construct: expressed in transfected cells; host or cells: CHO K1 cells (pSwitch/pGene GeneSwitch system, mifepristone-induced), clone 3H3; membranes
T1 sequence (Q9Y5N1 whole entry): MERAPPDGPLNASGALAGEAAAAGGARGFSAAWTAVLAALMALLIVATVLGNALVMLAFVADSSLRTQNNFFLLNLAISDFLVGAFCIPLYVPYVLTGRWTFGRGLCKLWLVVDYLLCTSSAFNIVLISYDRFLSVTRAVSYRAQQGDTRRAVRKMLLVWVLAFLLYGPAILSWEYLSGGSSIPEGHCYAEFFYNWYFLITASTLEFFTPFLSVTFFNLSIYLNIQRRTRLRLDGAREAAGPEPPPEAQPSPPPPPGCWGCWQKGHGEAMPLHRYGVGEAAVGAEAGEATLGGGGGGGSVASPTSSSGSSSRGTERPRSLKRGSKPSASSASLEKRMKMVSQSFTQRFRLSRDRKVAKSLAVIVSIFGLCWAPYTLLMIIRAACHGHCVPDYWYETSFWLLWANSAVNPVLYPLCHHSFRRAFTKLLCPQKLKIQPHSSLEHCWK
Format: biochemical
Source text: A membrane preparation containing histamine H3 receptors may be prepared in accordance with the following procedures:
(i) Generation of Histamine H3 Cell Line
DNA encoding the human histamine H3 gene (Huvar, A. et al. (1999) Mol. Pharmacol. 55(6), 1101-1107) was cloned into a holding vector, pcDNA3.1 TOPO (InVitrogen) and its cDNA was isolated from this vector by restriction digestion of plasmid DNA with the enzymes BamH1 and Not-1 and ligated into the inducible expression vector pGene (InVitrogen) digested with the same enzymes. The GeneSwitch™ system (a system where in transgene expression is switched off in the absence of an inducer and switched on in the presence of an inducer) was performed as described in U.S. Pat. Nos. 5,364,791; 5,874,534; and 5,935,934. Ligated DNA was transformed into competent DH5α E. coli host bacterial cells and plated onto Luria Broth (LB) agar containing Zeocin™ (an antibiotic which allows the selection of cells expressing the sh ble gene which is present on pGene and pSwitch) at 50 μg ml^−1. Colonies containing the re-ligated plasmid were identified by restriction analysis. DNA for transfection into mammalian cells was prepared from 250 ml cultures of the host bacterium containing the pGeneH3 plasmid and isolated using a DNA preparation kit (Qiagen Midi-Prep) as per manufacturers guidelines (Qiagen). CHO K1 cells previously transfected with the pSwitch regulatory plasmid (InVitrogen) were seeded at 2×10e6 cells per T75 flask in Complete Medium, containing Hams F12 (GIBCOBRL, Life Technologies) medium supplemented with 10% v/v dialysed foetal bovine serum, L-glutamine, and hygromycin (100 μg ml^−1), 24 hours prior to use. Plasmid DNA was transfected into the cells using Lipofectamine plus according to the manufacturers guidelines (InVitrogen). 48 hours post transfection cells were placed into complete medium supplemented with 500 μg ml^−1 Zeocin™.
10-14 days post selection 10 nM Mifepristone (InVitrogen), was added to the culture medium to induce the expression of the receptor. 18 hours post induction cells were detached from the flask using ethylenediamine tetra-acetic acid (EDTA; 1:5000; InVitrogen), following several washes with phosphate buffered saline pH 7.4 and resuspended in Sorting Medium containing Minimum Essential Medium (MEM), without phenol red, and supplemented with Earles salts and 3% Foetal Clone II (Hyclone). Approximately 1×10e7 cells were examined for receptor expression by staining with a rabbit polyclonal antibody, 4a, raised against the N-terminal domain of the histamine H3 receptor, incubated on ice for 60 minutes, followed by two washes in sorting medium. Receptor bound antibody was detected by incubation of the cells for 60 minutes on ice with a goat anti rabbit antibody, conjugated with Alexa 488 fluorescence marker (Molecular Probes). Following two further washes with Sorting Medium, cells were filtered through a 50 μm Filcon™ (BD Biosciences) and then analysed on a FACS Vantage SE Flow Cytometer fitted with an Automatic Cell Deposition Unit. Control cells were non-induced cells treated in a similar manner. Positively stained cells were sorted as single cells into 96-well plates, containing Complete Medium containing 500 μg ml^−1 Zeocin™ and allowed to expand before reanalysis for receptor expression via antibody and ligand binding studies. One clone, 3H3, was selected for membrane preparation.
(ii) Membrane Preparation from Cultured Cells
All steps of the protocol are carried out at 4° C. and with pre-cooled reagents. The cell pellet is resuspended in 10 volumes of homogenisation buffer (50 mM N-2-hydroxyethylpiperazine-N′-2-ethanesulfonic acid (HEPES), 1 mM ethylenediamine tetra-acetic acid (EDTA), pH 7.4 with KOH, supplemented with 10e-6M leupeptin (acetyl-leucyl-leucyl-arginal; Sigma L2884), 25 μg/ml bacitracin (Sigma B0125), 1 mM phenylmethylsulfonyl fluoride (PMSF) and 2×10e-6M pepstain A (Sigma)). […]

Row | SMILES | Ki
1 | CN1CCN(c2ccc(Cc3ccc4c(c3)CCN(C3CCC3)CC4)cn2)C1=O [Example E40, 1-{5-[(3-Cyclobutyl-2,3,4,5-tetrahydro-1H-3-benzazepin-7-yl)methyl]-2-pyridinyl}-3-methyl-2-imidazolidinone] | < 3.16 nM
2 | N#Cc1ccc(Cc2ccc3c(c2)CCN(C2CCC2)CC3)nc1 [Example E41, 6-[(3-cyclobutyl-2,3,4,5-tetrahydro-1H-3-benzazepin-7-yl)methyl]-3-pyridinecarbonitrile] | < 3.16 nM
3 | CNC(=O)c1ccc(Cc2ccc3c(c2)CCN(C2CCC2)CC3)nc1 [Example E42, 6-[(3-cyclobutyl-2,3,4,5-tetrahydro-1H-3-benzazepin-7-yl)methyl]-N-methyl-3-pyridinecarboxamide] | < 3.16 nM
4 | O=C(c1ccc(Cc2ccc3c(c2)CCN(C2CCC2)CC3)nc1)N1CCCC1 [Example E43, 3-cyclobutyl-7-{[5-(1-pyrrolidinylcarbonyl)-2-pyridinyl]methyl}-2,3,4,5-tetrahydro-1H-3-benzazepine] | < 3.16 nM
5 | NC(=O)c1ccc(Cc2ccc3c(c2)CCN(C2CCC2)CC3)nc1 [Example E44, 6-[(3-cyclobutyl-2,3,4,5-tetrahydro-1H-3-benzazepin-7-yl)methyl]-3-pyridinecarboxamide] | < 3.16 nM
6 | NC(=O)c1ccc(Cc2ccc3c(c2)CCN(C2CCC2)CC3)cc1 [Example E46, 4-[(3-cyclobutyl-2,3,4,5-tetrahydro-1H-3-benzazepin-7-yl)methyl]benzamide] | < 0.316 nM
7 | CCNC(=O)c1ccc(Cc2ccc3c(c2)CCN(C2CCC2)CC3)cc1 [Example E48, 4-[(3-cyclobutyl-2,3,4,5-tetrahydro-1H-3-benzazepin-7-yl)methyl]-N-ethylbenzamide] | < 3.16 nM
8 | O=C(c1ccc(Cc2ccc3c(c2)CCN(C2CCC2)CC3)cc1)N1CCCC1 [Example E49, 3-cyclobutyl-7-{[4-(1-pyrrolidinylcarbonyl)phenyl]methyl}-2,3,4,5-tetrahydro-1H-3-benzazepine] | < 3.16 nM
9 | O=C(NC1CCOCC1)c1ccc(Cc2ccc3c(c2)CCN(C2CCC2)CC3)cc1 [Example E50, 4-[(3-cyclobutyl-2,3,4,5-tetrahydro-1H-3-benzazepin-7-yl)methyl]-N-(tetrahydro-2H-pyran-4-yl)benzamide] | < 3.16 nM
10 | CC(C)NC(=O)c1ccc(Cc2ccc3c(c2)CCN(C2CCC2)CC3)cc1 [Example E51, 4-[(3-cyclobutyl-2,3,4,5-tetrahydro-1H-3-benzazepin-7-yl)methyl]-N-(1-methylethyl)benzamide] | < 3.16 nM
11 | CC(C)NC(=O)c1ccc(Cc2ccc3c(c2)CCN(C2CCC2)CC3)cn1 [Example E53, 5-[(3-cyclobutyl-2,3,4,5-tetrahydro-1H-3-benzazepin-7-yl)methyl]-N-(1-methylethyl)-2-pyridinecarboxamide] | < 3.16 nM
12 | O=C(c1ccc(Cc2ccc3c(c2)CCN(C2CCC2)CC3)cn1)N1CCCC1 [Example E54, 3-cyclobutyl-7-{[6-(1-pyrrolidinylcarbonyl)-3-pyridinyl]methyl}-2,3,4,5-tetrahydro-1H-3-benzazepine] | < 3.16 nM
13 | O=C(NC1CCOCC1)c1ccc(Cc2ccc3c(c2)CCN(C2CCC2)CC3)cn1 [Example E55, 5-[(3-cyclobutyl-2,3,4,5-tetrahydro-1H-3-benzazepin-7-yl)methyl]-N-(tetrahydro-2H-pyran-4-yl)-2-pyridinecarboxamide] | < 3.16 nM
14 | N#Cc1ccc(NC(=O)c2ccc(Cc3ccc4c(c3)CCN(C3CCC3)CC4)cn2)cc1 [Example E56, N-(4-cyanophenyl)-5-[(3-cyclobutyl-2,3,4,5-tetrahydro-1H-3-benzazepin-7-yl)methyl]-2-pyridinecarboxamide] | < 3.16 nM
15 | c1cc(-c2csnn2)ccc1Cc1ccc2c(c1)CCN(C1CCC1)CC2 [Example E57, 3-cyclobutyl-7-{[4-(1,2,3-thiadiazol-4-yl)phenyl]methyl}-2,3,4,5-tetrahydro-1H-3-benzazepine] | < 0.316 nM
16 | O=c1nc(-c2ccc(Cc3ccc4c(c3)CCN(C3CCC3)CC4)cc2)[nH]o1 [Example E58, 3-{4-[(3-cyclobutyl-2,3,4,5-tetrahydro-1H-3-benzazepin-7-yl)methyl]Phenyl}-1,2,4-oxadiazol-5(2H)-one] | < 3.16 nM
17 | c1cnn(-c2ccc(Cc3ccc4c(c3)CCN(C3CCC3)CC4)cc2)c1 [Example E59, 3-cyclobutyl-7-{[4-(1H-pyrazol-1-yl)phenyl]methyl}-2,3,4,5-tetrahydro-1H-3-benzazepine] | < 0.316 nM
18 | c1ncn(-c2ccc(Cc3ccc4c(c3)CCN(C3CCC3)CC4)cc2)n1 [Example E60, 3-cyclobutyl-7-{[4-(1H-1,2,4-triazol-1-yl)phenyl]methyl}-2,3,4,5-tetrahydro-1H-3-benzazepine] | < 0.316 nM
